Laboratory results as given in patent US11096946B2, “Use of a PPAR-δ agonist for reducing loss of muscle strength, muscle mass, or type I muscle fibers in an immobilized limb” (vTv Therapeutics LLC, priority 2013, dated 2021).
Where “and” joins values, the source holds several entries; their conditions need not be identical. Equal entries are not always repeated. Structures can show the parent of a compound that is named as a salt.

System: human subjects
Assay: Repeated measures knee extension strength test (Muscle Strength Test) during and after limb immobilization, placebo-controlled study
Assay type: in vivo
Conditions: for Muscle strength, knee extension, Baseline Mean: baseline pre-dose; for Muscle strength, knee extension, LSMean change from baseline, Day 14: Day 14 (brace off); for Muscle strength, knee extension, LSMean change from baseline, Day 29: P 0.2 vs placebo; for Mean Difference Compound 1 vs Placebo, LSMean change in muscle strength, Day 29: P 0.2
Text: A protocol for the experimental evaluation of the impact of a PPARδ agonist on muscle atrophy during and following the end of limb immobilization is provided below. In the protocol, reference to Compound 1 refers to (E)-[4-[3-(4-Fluorophenyl)-3-[4-[3-(morpholin-4-yl)propynyl]phenyl]allyloxy]-2-methyl-phenoxy]acetic acid sodium salt.
A randomized, investigator and subject blind, sponsor open, placebo-controlled study evaluating the possible impact of Compound 1 on the recovery of muscle atrophy from limb immobilization is described. Subjects will be leg immobilized using a knee brace (30 degrees flexion on the left leg to allow driving) and will be provided with walking crutches such that there is no weight bearing on the immobilized leg. Subjects will be enrolled and randomized to receive Compound 1 or placebo (both referenced as Study Drug in this protocol). The study consists of five periods termed SCR (screening period, Day −35 to −3), BL (baseline period: Day −1 to Day 1 [am]), IMM (limb immobilization and treatment with study drug, Day 1 [pm] to Day 14), TRE (treatment with study drug without limb immobilization, Day 15 to Day 29) and REC (no treatment recovery period, Day 29 to Day 42). There will be six testing days during the study: Day 1 (baseline), Day 14 (brace off day), Day 16 (48 hours after brace off), Day 21, Day 29 (last dose) and Day 42 (final study visit). On each testing day, subjects will undergo the combination of several testing procedures in sequential order as listed: 1) Morning activity plus approximately 500-step walk (when domiciled at Clinical Research Unit [CRU]); 2) Blood sampling; 3) Standardized breakfast (Study Drug administration will be immediately before the breakfast except for Day 42); 4) Muscle biopsy; 5) Leg muscle strength tests (MST) and modified physical performance test (PPT); and 6) Magnetic resonance imaging (MRI) of the thigh to evaluate thigh muscle volume/cross-section area (CSA).
Two treatment groups in this study: • a) Treatment group A: Treated with 100 mg of Compound 1 twice daily from Day 1 to Day 29. • b) Treatment group B: Treated with placebo twice daily from Day 1 to Day 29.
The maximal amount of weight that the participant is able to lift for one repetition (1-RM) will be measured on a Hoist multi-station weight machine for the following exercises: leg press, knee extension, knee flexion, and bench press. Isokinetic (Cybex) testing of knee extension/flexion will be done to assess deficiencies in rapid strength recruitment. Subjects will be seated on the testing device and strapped in to prevent the pelvis from sliding forward. The movement arm will be adjusted to the subject's leg length and the weight of the leg will be determined. Isokinetic testing of the knee extensors and flexors will be performed at 0°/s, 60°/s and 180°/s. Four to five repetitions at each mode will be performed with the highest two values used for data analysis. Subjects will be familiarized with these procedures during the screening visit.
An experimental study was conducted to evaluate the impact of Compound 1, a PPARδ agonist, on muscle atrophy during and following the end of limb immobilization in human subjects. Except where specifically noted otherwise below, all methods were conducted as described in the protocol above.
Methods were generally conducted as described in the protocol. The study was designed as a double-blind, randomized, placebo-controlled, parallel study in healthy male subjects. A total of N=24 subjects were randomized. The number of randomized subjects is lower than originally planned. A total of N=21 subjects had data available for statistical analysis.
Multiple imputation statistical methods were used to preserve the intent-to-treat (ITT) principle while coping with invalid and missing data.
Primary analysis was executed as defined in the study protocol and the statistical analysis plan (see protocol described above). […]

Cc1cc(OC/C=C(/c2ccc(F)cc2)c2ccc(C#CCN3CCOCC3)cc2)ccc1OCC(=O)O [Compound 1, (E)-[4-[3-(4-Fluorophenyl)-3-[4-[3-(morpholin-4-yl)propynyl]phenyl]allyloxy]-2-methyl-phenoxy]acetic acid sodium salt]
Change in muscle strength compared to baseline, difference to placebo (14 days following the end of immobilization (i.e., day 28)): no longer significantly different | Muscle strength, knee extension, Baseline Mean (Table 1 primary analysis, multiple imputation for missing and invalid data, n = 10, healthy males, raw data in lbs): 195 | Muscle strength, knee extension, LSMean change from baseline, Day 14 (Table 1 primary analysis, multiple imputation, 100 mg twice daily, n = 10, P 0.012 vs placebo): −2.9 | Mean Difference Compound 1 vs Placebo, LSMean change in muscle strength, Day 14 (Table 1 primary analysis, multiple imputation, P 0.012): 36 | Muscle strength, knee extension, LSMean change from baseline, Day 21 (primary) (Table 1 primary analysis, multiple imputation, 100 mg twice daily, n = 10, P 0.004 vs placebo): 36.8 | Mean Difference Compound 1 vs Placebo, LSMean change in muscle strength, Day 21 (primary) (Table 1 primary analysis, multiple imputation, P 0.004): 36.5 | Muscle strength, knee extension, LSMean change from baseline, Day 29 (Table 1 primary analysis, multiple imputation, 100 mg twice daily, n = 10): 30.4 | Mean Difference Compound 1 vs Placebo, LSMean change in muscle strength, Day 29 (Table 1 primary analysis, multiple imputation): 21.9 | Mean Difference Compound 1 vs Placebo, Baseline mean muscle strength (Table 1 primary analysis, multiple imputation, P 0.3): 19 | Muscle strength, knee extension, Baseline Mean (Table 2 supportive analysis, no imputation, excluding protocol violators, n = 9): 191 lbs | Muscle strength, knee extension, LSMean change from baseline, Day 14 (Table 2 supportive analysis, no imputation, 100 mg twice daily, n = 9, P 0.04 vs placebo): −1.9 lbs | Mean Difference Compound 1 vs Placebo, LSMean change in muscle strength, Day 14 (Table 2 supportive analysis, no imputation, P 0.04): 36.3 lbs | Muscle strength, knee extension, LSMean change from baseline, Day 21 (primary) (Table 2 supportive analysis, no imputation, 100 mg twice daily, n = 9, P 0.048 vs placebo): 31.5 lbs | Mean Difference Compound 1 vs Placebo, LSMean change in muscle strength, Day 21 (primary) (Table 2 supportive analysis, no imputation, P 0.048): 31.3 lbs | Muscle strength, knee extension, LSMean change from baseline, Day 29 (Table 2 supportive analysis, no imputation, 100 mg twice daily, n = 9): 32.5 lbs | Mean Difference Compound 1 vs Placebo, LSMean change in muscle strength, Day 29 (Table 2 supportive analysis, no imputation): 19.4 lbs | Mean Difference Compound 1 vs Placebo, Baseline mean muscle strength (Table 2 supportive analysis, no imputation, P 0.4): 23 lbs | Primary muscle strength variable of analysis vs placebo (human subjects, N=21 with data available): statistically significant superiority over placebo | Rate of loss of muscle strength during immobilization (human subjects, compared to their baseline measurements): reduced to almost zero | Mean change from baseline to day 21 in muscle strength relative to placebo (human subjects, day 21): showed superiority | Muscle atrophy during immobilization (rate of loss of muscle strength relative to placebo) (human subjects, during immobilization): effective in reducing muscle atrophy during immobilization | Atrophy following immobilization (rate of return of muscle strength to baseline relative to placebo) (human subjects, following immobilization): reducing atrophy following immobilization | Maximum muscle strength on the knee extension (KE), raw value, Day 1 (individual Treated subjects A-I, Day 1 baseline, pre-dose, sodium salt): 220.5 Lbs and 145.5 Lbs and 215.5 Lbs and 265.5 Lbs and 123 Lbs and 260.5 Lbs and 168 Lbs and 163 Lbs and 160.5 Lbs | Maximum muscle strength on the knee extension (KE), raw value, Day 14 (individual Treated subjects A-I, Day 14, day brace is removed, 100 mg twice daily, sodium salt): 200.5 Lbs and 195 Lbs and 163 Lbs and 255.5 Lbs and 120.5 Lbs and 225.5 Lbs and 158 Lbs and 185.5 Lbs and 170.5 Lbs | Maximum muscle strength on the knee extension (KE), raw value, Day 21 (individual Treated subjects A-I, Day 21, primary endpoint, 100 mg twice daily, sodium salt): 270.5 Lbs (3×) and 225.5 Lbs and 213 Lbs and 158 Lbs and 183 Lbs and 205.5 Lbs | Maximum muscle strength on the knee extension (KE), raw value, Day 29 (individual Treated subjects A-I, Day 29, final assessment during treatment period, sodium salt): 270.5 Lbs (2×) and 235.5 Lbs and 225.5 Lbs and 213 Lbs and 150.5 Lbs and 183 Lbs and 230.5 Lbs | Maximum muscle strength on the knee extension (KE), raw value, Day 42 (individual Treated subjects A-I, Day 42, safety follow-up after end of treatment, sodium salt): 270.5 Lbs (3×) and 265.5 Lbs and 238 Lbs and 158 Lbs and 183 Lbs and 220.5 Lbs
